Data: patent US20110124620A1, “SPHINGOSINE 1 PHOSPHATE RECEPTOR MODUATORS AND THEIR USE TO TREAT MUSCLE INFLAMMATION” (priority 2008, published 2011)

Tested on: Primary Human Myotubes
Assay: Effect on cytokine-induced atrophy of primary human myotubes (myotube diameter)
Type: cell-based
Procedure: In Vitro: Effect on Cytokine-Induced Atrophy of Primary Human Myotubes.
Human skeletal muscle (skMC) cells are obtained from Cambrex (#CC-2561). For experiments skMC stocks are thawed and maintained in SkBM (Lonza CC-3161) containing 20% FCS and 0.1% gentamycin at 37° C., 5% CO2. After 4-5 days cells are seeded for experiments onto six-well plates coated with matrigel (450,000/well) and grown at 37° C., 5% CO2 for one day. Cells are then washed 3× with SkBM and differentiated into myotubes with SkBM containing 1 μM SB431542 (ALK4/5 inhibitor; Sigma #S4317) for 4 days (SB431542 is removed 24 h prior cell treatment). Myotubes are then treated with test compound either in the absence or in the presence of a cytokine cocktail (TNFα 10 ng/ml, IL-1β 2 ng/ml, IFNγ 10 ng/ml) for 24 h in SkBM plus 0.1% gentamycin, washed once with CSB buffer: 80 mM pipes, […], 1 mM MgCl 6H20 and 4% PEG35000 (Fluka #94646) and fixed with 4% paraformaldehyde (Electron Microscopy Sciences #15714) in CSB for 15 min at room temperature. […] Average diameters of at least 40 myotubes are measured for each condition at three points separated by 50 μm along the length of the myotube.

## CCc1cc(C(C)=NOCc2ccc(C3CCCCC3)c(C(F)(F)F)c2)ccc1CN1CC(C(=O)O)C1 [Compound A, 1-{4-[1-(4-cyclohexyl-3-trifluoromethyl-benzyloxyimino)-ethyl]-2-ethyl-benzyl}-azetidine-3-carboxylic acid]
Compound A 1 nM, cytokine cocktail (TNFα 10 ng/ml, IL-1β 2 ng/ml, IFNγ 10 ng/ml) for 24 h, cocktail alone gives approx. 20% decrease in myotube diameter vs vehicle control
  effect on cytokine-induced atrophy (myotube diameter): block almost completely the cytokine-induced atrophy
Higher concentrations of Compound A (above 1 nM), cytokine cocktail for 24 h
  effect on cytokine-induced atrophy (myotube diameter): exert the same effect
